Reference: patent US11998642B2 (priority 2011, dated 2024)
Like-named read-outs stand apart in the source and are kept apart here.

Tests used:
[1] = cited from earlier work
[2] = cited from earlier work; remark: listed apart in the source
cell membrane = conditions: Xu & McLeod 2001; cited from earlier work
αHL = αHL (Staphylococcus aureus, UniProt P09616); conditions: pH 7; cited from earlier work
WT αHL pore = WT αHL pore (Staphylococcus aureus, UniProt P09616); assay type: biochemical, staphylococcal; conditions: pH 8
Chain of WT αHL pore (P09616 27-319 limits assumed): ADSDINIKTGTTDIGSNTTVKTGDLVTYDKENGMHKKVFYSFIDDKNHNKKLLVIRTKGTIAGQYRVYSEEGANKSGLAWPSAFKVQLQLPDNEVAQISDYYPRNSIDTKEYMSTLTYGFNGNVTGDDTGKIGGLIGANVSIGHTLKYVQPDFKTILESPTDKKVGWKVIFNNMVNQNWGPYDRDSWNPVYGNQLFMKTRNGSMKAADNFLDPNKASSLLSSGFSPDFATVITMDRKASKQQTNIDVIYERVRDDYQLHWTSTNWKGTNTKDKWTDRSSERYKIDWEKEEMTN

Chain of αHL (P09616 27-319 limits assumed): as above

fluo-4
koff for Ca^2+ dissociation [1]: ~400 s⁻¹

CC/C(=C(\c1ccc(O)cc1)c1ccc(OCCN(C)C)cc1)c1ccc(C(C)C)cc1 [Miproxifene, miproxifene]
water solubility less than miproxifene phosphate ([2]; relative to miproxifene phosphate): 1,000 times

COc1cccc2c1C(=O)c1c(O)c3c(c(O)c1C2=O)C[C@@](O)(C(=O)CO)C[C@@H]3O[C@H]1C[C@H](N)[C@H](O)[C@H](C)O1 [doxorubicin]
permeability to the cell membrane (cell membrane): able to access the cytosol and is

O=C(O)CN(CCN(CC(=O)O)CC(=O)O)CC(=O)O [EDTA]
koff for Ca^2+ dissociation ([1]; Naraghi 1997, Johnson et al. 1999): < 1 s⁻¹

OC[C@H]1O[C@@H]2O[C@H]3[C@H](O)[C@@H](O)[C@@H](O[C@H]4[C@H](O)[C@@H](O)[C@@H](O[C@H]5[C@H](O)[C@@H](O)[C@@H](O[C@H]6[C@H](O)[C@@H](O)[C@@H](O[C@H]7[C@H](O)[C@@H](O)[C@@H](O[C@H]8[C@H](O)[C@@H](O)[C@@H](O[C@H]9[C@H](O)[C@@H](O)[C@@H](O[C@H]1[C@H](O)[C@H]2O)O[C@@H]9CO)O[C@@H]8CO)O[C@@H]7CO)O[C@@H]6CO)O[C@@H]5CO)O[C@@H]4CO)O[C@@H]3CO [γCD, γ-cyclodextrin]
blocking amplitude (αHL): ~60% | dissociation rate (αHL): 2.0 s⁻¹ | current blockade (blocking) amplitude, mean±s.d. (WT αHL pore): 63.7±2.0% | dissociation rate, mean±s.d. (WT αHL pore): 4.0 ± 0.6 s⁻¹

miproxifene phosphate
aqueous solubility greater than miproxifene ([2]; relative to miproxifene, Rautio et al. 2008): 1,000 fold
